Experimental data reported in US12564559B2, “Combinations of LSD1 inhibitors for use in the treatment of solid tumors” (Oryzon Genomics, S.A., priority 2016, dated 2026).
Where two headings read alike, the source gives them in different places.

Columns and labels:
NCI-H1876 [1] = experiment: Growth Inhibition (ATPLite), SCLC cell line treated for 7 days (Example 1); type: cell-based, human; conditions: NCI-H1876, “classic” neuroendocrine, FIG. 1A
Procedure: (§1) Once cells have been expanded and divided at their expected doubling times, screening was started. Cells were seeded in growth media in black 384-well tissue culture treated plates at 500 cells per well (except where noted in Analyzer). Cells were equilibrated in assay plates via centrifugation and placed in incubators attached to the Dosing Modules at 37° C. for twenty-four hours before treatment. […] These Tzero (T0) plates were read using ultra-sensitive luminescence on Envision Plate Readers.

NCI-H510 = experiment: as above; type: cell-based, human; conditions: NCI-H510, “classic” neuroendocrine, FIG. 1B
Procedure: as §1

NCI-H526 model = experiment: NCI-H526 xenograft model, combination with etoposide and carboplatin (Example 4, FIG. 2B); type: in vivo, nu/nu mice; conditions: added at 20 upk 5/2 for three weeks to SOC (etoposide + carboplatin)
Procedure: 8-12-week old nu/nu mice were injected with 1×10^7 H526 cells or […] SHP-77 resuspended in 100 μL of 1:1 mixture of Matrigel® and PBS. Tumors were staged at 100-150 mm^3 animals and distributed into dosing groups. […] Carboplatin was administered i.p. at a dose of 100 mpk weekly for three weeks (qwkx3). […] Tumor volume was measure biweekly using a digital caliber. The endpoint of the experiment was a tumor volume of 1000 mm^3 or 90 days, whichever came first. Statistical analysis was performed using unpaired t-test and Gehan-Breslow-Wilcoxon test.

H510A xenograft model = experiment: NCI-H510A xenograft model, in vivo tumor growth inhibition (Example 9, FIG. 9); set-up: species or system athymic nude mice; conditions: 40 μg per kg five days on/two days off; after 21 days of dosing; compared to untreated controls
Procedure: 7-8-week old athymic nude mice animals were injected with 5×10^6 H510A cells resuspended in 100 μL of 1:1 mixture of Matrigel® matrix (Corning Inc., Tewksbury/MA, C. S. Hughes et al.^113) and PBS. Tumors were staged at 200-300 mm^3 animals and distributed into dosing groups. […] Tumor volume was measure biweekly using a digital caliber. The study was concluded when mean tumor volume within control group reached 2000 mm^3 or 28 days post-staging. Statistical analysis was performed using unpaired t-test.

DMS-114 = experiment: Cell response to LSD1 inhibition, SCLC cell line cultured 4 days (Example 5); type: cell-based, human; conditions: DMS-114, SubType V; for EC50: Homo sapiens, 96 h
From the text: (§2) As a positive control for cytotoxicity the Hsp90 inhibitor 17-N-allylamino-17-demethoxygeldanamycin (17-AAG, a geldanamycin analogue) was used as positive control in serial dilution.

NCI-H1048 = experiment: as above; type: cell-based, human; conditions: NCI-H1048, SubType V; for EC50: Homo sapiens, 96 h
From the text: as §2

NCI-H1417 = experiment: as above; type: cell-based, human; conditions: NCI-H1417, SubType C; for EC50: Homo sapiens, 96 h
From the text: as §2

NCI-H146 = experiment: as above; type: cell-based, human; conditions: NCI-H146, SubType C; for EC50: Homo sapiens, 96 h
From the text: as §2

NCI-H1876 [2] = experiment: as above; type: cell-based, human; conditions: NCI-H1876, SubType C; for EC50: Homo sapiens, 96 h
From the text: as §2

NCI-H187 = experiment: as above; type: cell-based, human; conditions: NCI-H187, SubType C; for EC50: Homo sapiens, 96 h
From the text: as §2

NCI-H2029 = experiment: as above; type: cell-based, human; conditions: NCI-H2029, SubType (C); for EC50: Homo sapiens, 96 h
From the text: as §2

NCI-H2081 = experiment: as above; type: cell-based, human; conditions: NCI-H2081, SubType C; for EC50: Homo sapiens, 96 h
From the text: as §2

NCI-H2171 = experiment: as above; type: cell-based, human; conditions: NCI-H2171, SubType V; for EC50: Homo sapiens, 96 h
From the text: as §2

NCI-H2227 = experiment: as above; type: cell-based, human; conditions: NCI-H2227, SubType C; for EC50: Homo sapiens, 96 h
From the text: as §2

NCI-H345 = experiment: as above; type: cell-based, human; conditions: NCI-H345, SubType C; for EC50: Homo sapiens, 96 h
From the text: as §2

NCI-H446 = experiment: as above; type: cell-based, human; conditions: NCI-H446, SubType V; for EC50: Homo sapiens, 96 h
From the text: as §2

NCI-H510A = experiment: as above; type: cell-based, human; conditions: SubType C; for EC50: Homo sapiens, 96 h
From the text: as §2

NCI-H526 = experiment: as above; type: cell-based, human; conditions: NCI-H526, SubType V; for EC50: Homo sapiens, 96 h
From the text: as §2

NCI-H69 = experiment: as above; type: cell-based, human; conditions: NCI-H69, SubType C; for EC50: Homo sapiens, 96 h
From the text: as §2

NCI-H748 = experiment: as above; type: cell-based, human; conditions: NCI-H748, SubType C; for EC50: Homo sapiens, 96 h
From the text: as §2

NCI-H82 = experiment: as above; type: cell-based, human; conditions: NCI-H82, SubType V; for EC50: Homo sapiens, 96 h
From the text: as §2

SBC-5 = experiment: as above; type: cell-based, human; conditions: SBC-5, SubType (V); for EC50: Homo sapiens, 96 h
From the text: as §2

SHP-77 = experiment: as above; type: cell-based, human; conditions: SHP-77, SubType V(C); for EC50: Homo sapiens, SHP77, 96 h
From the text: as §2

[3] = read-out: Sensitivity to LSD1 inh.

N[C@H]1CC[C@H](N[C@@H]2C[C@H]2c2ccccc2)CC1 [listing 1 of 2 here]
sensitivity of cell line to the compound (NCI-H1876 [1]): high level of sensitivity
sensitivity of cell line to the compound (NCI-H510): high level of sensitivity
duration of tumor regression (NCI-H526 model): improved the duration of tumor regression
delay of tumor regrowth (NCI-H526 model; after the suspension of dosing): 30 days
tumor growth inhibition (H510A xenograft model): 34%

N[C@H]1CC[C@H](N[C@@H]2C[C@H]2c2ccccc2)CC1 [listing 2 of 2 here]
Max. Response (%) (DMS-114): 0%
EC50 (DMS-114; read-out: EC50): > 50 nM
EC50 (DMS-114; [3]): ≥ 50 nM
EC50 (NCI-H1048; read-out: EC50): > 50 nM
EC50 (NCI-H1048; [3]): ≥ 50 nM
Max. Response (%) (NCI-H1048): 27%
EC50 (NCI-H1417; read-out: EC50): 0.302 nM
EC50 (NCI-H1417; [3]): < 50 nM
Max. Response (%) (NCI-H1417): 77%
EC50 (NCI-H146; read-out: EC50): 0.1 nM
EC50 (NCI-H146; [3]): < 50 nM
Max. Response (%) (NCI-H146): 48%
EC50 (NCI-H1876 [2]; read-out: EC50): 0.0432 nM
EC50 (NCI-H1876 [2]; [3]): < 50 nM
Max. Response (%) (NCI-H1876 [2]): 145%
EC50 (NCI-H187; read-out: EC50): 0.136 nM
EC50 (NCI-H187; [3]): < 50 nM
Max. Response (%) (NCI-H187): 61%
EC50 (NCI-H2029; read-out: EC50): > 50 nM
EC50 (NCI-H2029; [3]): ≥ 50 nM
Max. Response (%) (NCI-H2029): 0%
EC50 (NCI-H2081; read-out: EC50): 0.92 nM
EC50 (NCI-H2081; [3]): < 50 nM
Max. Response (%) (NCI-H2081): 10%
EC50 (NCI-H2171; read-out: EC50): > 50 nM
EC50 (NCI-H2171; [3]): ≥ 50 nM
Max. Response (%) (NCI-H2171): 0%
EC50 (NCI-H2227; read-out: EC50): > 50 nM
EC50 (NCI-H2227; [3]): ≥ 50 nM
Max. Response (%) (NCI-H2227): 0%
EC50 (NCI-H345; read-out: EC50): 0.0275 nM
EC50 (NCI-H345; [3]): < 50 nM
Max. Response (%) (NCI-H345): 7%
EC50 (NCI-H446; read-out: EC50): > 50 nM
EC50 (NCI-H446; [3]): ≥ 50 nM
Max. Response (%) (NCI-H446): 7%
EC50 (NCI-H510A; read-out: EC50): 0.315 nM
EC50 (NCI-H510A; [3]): < 50 nM
Max. Response (%) (NCI-H510A): 68%
EC50 (NCI-H526; read-out: EC50): 0.632 nM
EC50 (NCI-H526; [3]): < 50 nM
Max. Response (%) (NCI-H526): 35%
EC50 (NCI-H69; read-out: EC50): 0.585 nM
EC50 (NCI-H69; [3]): < 50 nM
Max. Response (%) (NCI-H69): 44%
EC50 (NCI-H748; read-out: EC50): 0.3 nM
EC50 (NCI-H748; [3]): < 50 nM
Max. Response (%) (NCI-H748): 13%
EC50 (NCI-H82; read-out: EC50): > 50 nM
EC50 (NCI-H82; [3]): ≥ 50 nM
Max. Response (%) (NCI-H82): 0%
EC50 (SBC-5; read-out: EC50): > 50 nM
EC50 (SBC-5; [3]): ≥ 50 nM
Max. Response (%) (SBC-5): 23%
EC50 (SHP-77; read-out: EC50): > 50 nM
EC50 (SHP-77; [3]): ≥ 50 nM
Max. Response (%) (SHP-77): 0%
